From patent US4743616A, “Novel biologically active compound having anti-prolyl endopeptidase activity” (Suntory Limited, priority 1984, dated 1988)

How the values were obtained:
[1] = tested on: experimental amnesia caused in rats by scopolamine; assay: Preventive effect against experimental amnesia caused in rats by scopolamine (intraperitoneal administration); assay type: in vivo, Wister male rats; conditions: for No. of amnesic rats/No. of rats tested / Percentage amnesia: scopolamine 3 mg/kg i.p., assessed 24 and 48 hours after scopolamine
Experimental: (§1) Several of the anti-prolyl endopeptidase compounds of the present invention were checked for their ability to prevent the inhibition of long-term memory fixation by scopolamine. Solutions of physiological saline that contained selected compounds of the present inventions in varying amounts (20 mg, 2 mg, 0.2 mg and 0.02 mg/kg) were administered intraperitoneally once a day to Wister male rats (100-120 g). One hour after the administration, electric shocks were applied to the rats so that they would acquire passive avoidance learning. Immediately thereafter, scopolamine was administered intraperitoneally to each rat in an amount of 3 mg per kg of body weight.
(§2) The result of the test was assessed both 24 hours and 48 hours after the administration of scopolamine. The number of amnesic rats and that of sound rats were counted for each of the control group (rats which were not administered the test compounds but administered intraperitoneally only scopolamine and physiological saline) and the treated group (rats which were administered both the test compound and scopolamine).

[2] = target: prolyl endopeptidase; assay: Measurement of anti-prolyl endopeptidase activity; assay type: biochemical; conditions: substrate Z-glycyl-proline-β-naphthylamide, phosphate buffer pH 7.0, absorbance at 410 nm
Experimental: The method of Yoshimoto and Tsuru (T. Yoshimoto and D. Tsuru, Agr. Biol. Chem. 42, 2417, 1978) was used to measure the anti-prolyl endopeptidase activities of several compounds of the present invention. A mixture of 0.0025M Z-glycyl-proline-β-naphthylamide (0.25 ml), 0.1M phosphate buffer (pH, 7.0; 0.99 ml) and a solution of a particular anti-prolyl endopeptidase compound (0.01 ml) was incubated in a test tube at 37° C. for 3 minutes. Thereafter, 0.1 ml of a solution of prolyl endopeptidase (0.2 U/ml) was added and the mixture was heated at 35° C. for 10 minutes. After the reaction, 2.0 ml of Triton X-100 in 1M acetate buffer (pH, 4.0 ) was added to the reaction mixture until the final concentration of the surfactant was 10%. The mixture was left at room temperature for 15 minutes and the absorance (a) at 410 nm was measured.
A sample for blind test was prepared by using the buffer instead of the anti-prolyl endopeptidase compound and its absorbance (b) was also measured. The percent inhibition of prolyl endopeptidase was calculated by the formula: ((b-a)/b)×100, and the amount of a specific compound to achieve 50% inhibition (IC50) was determined.

[3] = Acute toxicity test in mice; conditions: mouse, in vivo, ip; single i.p. administration in DMSO/physiological saline, five mice per group, observed at 24 and 48 hours; read-out: Average dose (mg/kg) at which the group remained sound and showed no sign of intoxication
Experimental: The compounds of the present invention were checked for their acute toxicity in CDF-1 strain male mice (body weight: 27.2-30.1 g) purchased from Awazu Laboratory Animals Co., Ltd.
Test samples were prepared by dissolving the respective compounds in DMSO, and mixing with an equal amount of physiological saline. A portion (0.1 ml) of the so conditioned test sample was administered intraperitoneally to each of the mice used. Each of the tested groups consisted of five mice. At 24 and 48 hours of the administration, the mice were observed.

[4] = tested on: experimental amnesia caused in rats by scopolamine; assay: Preventive effect against experimental amnesia caused in rats by scopolamine (oral administration); assay type: in vivo; conditions: for No. of amnesic rats/No. of rats tested / Percentage amnesia: scopolamine 3 mg/kg i.p.
Experimental: as §1, §2
Varying amounts (1, 5, 25 and 100 mg/kg) of the compound were administered orally to each of the rats and tested for its anti-amnesic effects by the same procedures as used in Example 9.

Compound | No. of amnesic rats/No. of rats tested ([1]; 20 mg/kg i.p.) | Percentage amnesia ([1]; 20 mg/kg i.p.) | IC50 (μg/test tube) [2] | NOAEL at 48 h [3] | No. of amnesic rats/No. of rats tested ([1]; 0.02 mg/kg i.p.) | Percentage amnesia ([1]; 0.02 mg/kg i.p.) | No. of amnesic rats/No. of rats tested ([1]; 0.2 mg/kg i.p.) | Percentage amnesia ([1]; 0.2 mg/kg i.p.) | No. of amnesic rats/No. of rats tested ([1]; 2 mg/kg i.p.) | Percentage amnesia ([1]; 2 mg/kg i.p.) | effect in preventing amnesia (in words) ([1]; i.p. administration, Example 9) | No. of amnesic rats/No. of rats tested ([4]; 1 mg/kg p.o.) | Percentage amnesia ([4]; 1 mg/kg p.o.) | No. of amnesic rats/No. of rats tested ([4]; 5 mg/kg p.o.) | Percentage amnesia ([4]; 5 mg/kg p.o.) | No. of amnesic rats/No. of rats tested ([4]; 25 mg/kg p.o.) | Percentage amnesia ([4]; 25 mg/kg p.o.) | No. of amnesic rats/No. of rats tested ([4]; 100 mg/kg p.o.) | Percentage amnesia ([4]; 100 mg/kg p.o.) | oral amount giving the strongest anti-amnesic action ([4]; of 1, 5, 25 and 100 mg/kg administered orally to rats)
COC(=O)[C@@H]1CCCN1C(=O)Cc1ccccc1 [Compound No. 2, N-phenylacetyl-proline methyl ester] | 7/10 | 70% | 200 μg/test tube | 535 mg/kg |  |  |  |  |  |  |  |  |  |  |  |  |  |  |  | 
O=CC1CCCN1C(=O)CCCc1ccccc1 (stereo not shown) [Compound No. 5] |  |  | 0.006 μg/test tube | 534 mg/kg | 4/15 | 27% | 2/15 | 13% | 3/15 | 20% | particularly effective in preventing amnesia | 4/10 | 40% | 1/10 | 10% | 3/10 | 30% | 8/10 | 80% | 5 mg/kg
O=CC1CCCN1C(=O)CCc1ccccc1 (stereo not shown) [Compound No. 3, N-(3-phenylpropionyl)-prolinal] |  |  | 0.018 μg/test tube | 543 mg/kg | 7/15 | 47% | 4/15 | 27% | 4/15 | 27% |  |  |  |  |  |  |  |  |  | 
COC(=O)C1CCCN1C(=O)CCCc1ccccc1 (stereo not shown) [Compound No. 6, N-(4-phenyl-n-butyryl)-proline methyl ester] |  |  | 25 μg/test tube | 536 mg/kg |  |  | 5/10 | 50% | 3/10 | 30% |  |  |  |  |  |  |  |  |  | 
O=CC1CCCN1C(=O)CCCCCc1ccccc1 (stereo not shown) [Sample prepared in Example 7, N-(6-phenyl-n-caproyl)-prolinal] |  |  | 0.35 μg/test tube |  |  |  |  |  |  |  |  |  |  |  |  |  |  |  |  | 
COC(=O)[C@@H]1CCCN1C(=O)CCc1ccccc1 [Compound No. 4, N-(3-phenylpropionyl)-proline methyl ester] | 4/10 | 40% | 60 μg/test tube | 542 mg/kg |  |  |  |  | 8/10 | 80% |  |  |  |  |  |  |  |  |  | 
O=CC1CCCN1C(=O)Cc1ccccc1 (stereo not shown) [Compound No. 1] |  |  | 0.8 μg/test tube | 535 mg/kg |  |  | 7/10 | 70% | 3/10 | 30% |  |  |  |  |  |  |  |  |  | 
